From patent publication US12527775B2 (priority 2020, dated 2026)
Where two headings read alike, the source gives them in different places.

Legend:
[1] = molecular target: human recombinant 5-HT2A receptor (Homo sapiens (Human), UniProt P28223); experiment: biochemical; assay type: binding; settings: [3H]-Ketanserin 3 nmol/L, Jump-In HEK cell membrane
Protocol: Test Example 1: 5-HT2A Receptor Binding Inhibition Test
(Each Experimental Condition)
Cell membrane: 15 μg of Jump-In HEK cell membrane (expressing human recombinant 5-HT2A receptor) per well
Assay buffer: Tris-HCl 50 mmol/L (pH 7.4) containing NaCl 120 mmol/L, MgCl2·6H2O 1 mmol/L, KCl 5 mmol/L, 0.1% BSA and CaCl2 2 mmol/L
Radioactive ligand: [^3H]-Ketanserin with a final concentration of 3 nmol/L
(§1) Non-specific ligand: Serotonin HCl with a final concentration of 500 μmol/L
(§2) The Kd value was calculated when the lot of cell membrane was changed. […] The radioactive ligand solution was serially diluted from 16 nM at a 2-fold ratio and the count was confirmed with a liquid scintillator. […] After that, filtration was performed with Cell harvester (PerkinElmer). The radioactive ligand solution was dispensed into an empty well of the GF/B UniFilter plate at 10 μL/well. […] The GF/B UniFilter plate was allowed to stand overnight at room temperature. […] The Saturation curve was drawn from the measured value, and the Kd value was calculated from the slope of the Scatchard Plot.
(§3) (Binding Test of the Compound According to the Present Invention)
(§4) After that, filtration was performed with Cell harvester (PerkinElmer).

[2] = molecular target: human recombinant 5-HT2C receptor (Homo sapiens (Human), UniProt P28335); experiment: biochemical; assay type: binding
Chain of human recombinant 5-HT2C receptor (P28335 whole entry, looked up): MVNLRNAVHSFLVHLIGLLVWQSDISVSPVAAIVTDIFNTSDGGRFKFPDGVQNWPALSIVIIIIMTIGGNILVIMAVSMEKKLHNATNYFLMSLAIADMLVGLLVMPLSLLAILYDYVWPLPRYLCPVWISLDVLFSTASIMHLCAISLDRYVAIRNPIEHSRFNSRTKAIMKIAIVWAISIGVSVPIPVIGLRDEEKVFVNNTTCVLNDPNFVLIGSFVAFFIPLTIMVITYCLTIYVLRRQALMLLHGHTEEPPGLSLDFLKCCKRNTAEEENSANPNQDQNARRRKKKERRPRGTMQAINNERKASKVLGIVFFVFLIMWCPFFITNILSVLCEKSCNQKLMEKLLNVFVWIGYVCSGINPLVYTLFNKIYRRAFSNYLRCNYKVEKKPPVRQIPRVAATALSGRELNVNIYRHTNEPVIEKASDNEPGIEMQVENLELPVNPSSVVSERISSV
Protocol: Test Example 2: 5-HT2C Receptor Binding Inhibition Test
(Each experimental condition)
Cell membrane: 0.5 μg of Jump-In HEK cell membrane (expressing human recombinant 5-HT2C receptor) per well
Assay buffer: Tris-HCl 50 mmol/L (pH 7.4) containing NaCl 120 mmol/L, MgCl2·6H2O 1 mmol/L, KCl 5 mmol/L, 0.1% BSA and CaCl2) 2 mmol/L
Radioactive ligand: [^3H]-Mesulergine with a final concentration of 1 nmol/L
as §1, §2, §3, §4

hERG channel (IKr) = hERG channel (IKr) (Homo sapiens (Human), UniProt Q12809); experiment: hERG test (automated whole cell patch clamp, IKr); assay type: cell-based; settings: CHO cells expressing hERG channel, pH 7.4, compound concentration of 3 μmol/L, read-out: hERG inhibition rate (tail peak current IKr)
Chain of hERG channel (IKr) (Q12809 whole entry): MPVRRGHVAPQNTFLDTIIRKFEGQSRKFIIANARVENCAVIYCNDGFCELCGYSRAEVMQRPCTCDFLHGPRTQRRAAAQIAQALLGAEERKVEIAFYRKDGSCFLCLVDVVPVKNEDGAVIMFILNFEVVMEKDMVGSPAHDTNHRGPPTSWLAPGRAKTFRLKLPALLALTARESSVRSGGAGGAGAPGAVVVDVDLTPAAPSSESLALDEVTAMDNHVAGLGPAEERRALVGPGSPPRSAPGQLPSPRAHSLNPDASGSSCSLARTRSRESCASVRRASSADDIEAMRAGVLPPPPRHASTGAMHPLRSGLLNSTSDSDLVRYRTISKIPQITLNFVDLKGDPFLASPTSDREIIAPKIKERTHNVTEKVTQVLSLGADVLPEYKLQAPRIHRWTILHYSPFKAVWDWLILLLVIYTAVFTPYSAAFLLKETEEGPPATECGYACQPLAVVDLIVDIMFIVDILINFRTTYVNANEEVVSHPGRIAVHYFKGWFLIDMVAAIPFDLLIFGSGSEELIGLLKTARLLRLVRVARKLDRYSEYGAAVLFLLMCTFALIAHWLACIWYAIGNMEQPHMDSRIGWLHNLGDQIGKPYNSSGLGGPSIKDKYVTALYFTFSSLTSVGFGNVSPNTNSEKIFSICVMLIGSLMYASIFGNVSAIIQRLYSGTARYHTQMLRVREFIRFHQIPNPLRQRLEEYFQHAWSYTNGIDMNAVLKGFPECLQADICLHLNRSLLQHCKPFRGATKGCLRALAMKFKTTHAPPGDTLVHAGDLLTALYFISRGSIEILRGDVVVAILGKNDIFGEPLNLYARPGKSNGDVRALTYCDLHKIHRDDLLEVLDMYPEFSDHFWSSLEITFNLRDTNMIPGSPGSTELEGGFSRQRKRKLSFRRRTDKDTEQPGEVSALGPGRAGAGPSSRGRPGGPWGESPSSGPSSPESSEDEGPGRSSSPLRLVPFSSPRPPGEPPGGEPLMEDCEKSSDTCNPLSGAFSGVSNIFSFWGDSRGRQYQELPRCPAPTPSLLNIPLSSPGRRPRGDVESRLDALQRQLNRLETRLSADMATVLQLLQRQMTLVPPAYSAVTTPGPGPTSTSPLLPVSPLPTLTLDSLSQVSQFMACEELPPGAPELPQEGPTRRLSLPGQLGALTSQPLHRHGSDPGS
Text: Test Example 3: hERG Test
For the purpose of assessing risk of an electrocardiogram QT interval prolongation of the compound according to the present invention, effects of the compound according to the present invention on delayed rectifier K^+ current (IKr), which plays an important role in the ventricular repolarization process, was studied using CHO cells expressing human ether-a-go-go related gene (hERG) channel.
After a cell was retained at a membrane potential of −80 mV by whole cell patch clamp method using an automated patch clamp system (QPatch; Sophion Bioscience A/S) and gave a leak potential of −50 mV, IKr induced by depolarization pulse stimulation at +20 mV for 2 seconds, and further, repolarization pulse stimulation at −50 mV for 2 seconds, was recorded. A vehicle, which was the 0.1% dimethyl sulfoxide solution in extracellular solution (NaCl: 145 mmol/L, KCl: 4 mmol/L, CaCl2: 2 mmol/L, MgCl2: 1 mmol/L, glucose:10 mmol/L, HEPES (4-(2-hydroxyethyl)-1-piperazineethanesulfonic acid): 10 mmol/L, pH7.4), or the compound according to the present invention had been dissolved at an objective concentration in the extracellular solution, each of the extracellular solution was applied to the cell at room temperature for 15 minutes or more. From the recording IKr, an absolute value of the tail peak current was measured based on the current value at the resting membrane potential using analysis software (QPatch Assay software; Sophion Bioscience A/S). The % inhibition of the tail peak current after application of the compound according to the present invention relative to the tail peak current after application of the vehicle was calculated, and further correction was performed using the inhibition rate result of the negative control to assess influence of the compound according to the present invention on IKr.

[3] = class symbols, read-out: h-5-HT2A Ki
[4] = human serotonin 5-HT2C receptor binding, [3H]-Mesulergine, read-out: h-5-HT2C Ki
[5] = read-out: human serotonin 5-HT2A receptor binding activity, Ki
[6] = [3H]-Mesulergine 1 nmol/L, Jump-In HEK cell membrane, read-out: human serotonin 5-HT2C receptor binding activity, Ki

| Compound | Ki [1, 3] | Ki [2, 4] | Ki [1, 5] | Ki [2, 6] | inhibition at 3 μmol/L (hERG channel (IKr)) |
| --- | --- | --- | --- | --- | --- |
| CC(C)CNc1ccc(CNC(=O)N(Cc2ccc(F)cn2)C2CCN(C)CC2)cc1 [Compound I-112] | < 10 nM | < 10 nM | – | – | – |
| CN1CCC(N(Cc2ccc(F)cn2)C(=O)NCc2ccc(OC3CC3)cc2)CC1 [Compound I-113] | < 10 nM | 10 to 100 nM | – | – | – |
| CC(C)COc1ccc(CNC(=O)N(Cc2ccc(F)cn2)[C@H]2CCNC[C@H]2F)cc1 [Compound I-115] | < 10 nM | < 10 nM | – | – | – |
| CCc1ccc(CNC(=O)N(Cc2ccc(F)cn2)C2CCN(C)CC2)cc1 [Compound I-116] | – | – | 1.45 nM | 12.2 nM | – |
| CN1CCC(N(Cc2ccc(F)cn2)C(=O)NCc2ccc(OCC(F)(F)C(F)F)cc2)CC1 [Compound I-117] | < 10 nM | < 10 nM | – | – | – |
| CC(C)COc1ccc(CNC(=O)N(Cc2ccn(C(F)F)n2)C2CCN(C)CC2)cc1 [Compound I-118] | < 10 nM | 10 to 100 nM | – | – | – |
| CCCOc1ccc(CNC(=O)N(Cc2ccc(F)cn2)[C@H]2CCNC[C@H]2F)cc1 [Compound I-119] | < 10 nM | < 10 nM | – | – | – |
| Cc1ccc(CNC(=O)N(Cc2ccc(F)cn2)[C@H]2CCN(C)CC23CC3)cc1 [Compound I-120] | < 10 nM | < 10 nM | – | – | – |
| CN1CCC(N(Cc2ccc(F)cn2)C(=O)NCc2ccc(N(C)C)cc2)CC1 [Compound I-121] | 10 to 100 nM | > 100 nM | – | – | – |
| CCCOc1ccc(CNC(=O)N(Cc2ccn(C)n2)[C@H]2CCNC[C@H]2F)cc1 [Compound I-122] | < 10 nM | 10 to 100 nM | – | – | – |
| CCCOc1ccc(CNC(=O)N(Cc2cc(C)n(C)n2)[C@H]2CCNC[C@H]2F)cc1 [Compound I-123] | < 10 nM | 10 to 100 nM | – | – | – |
| CC(C)COc1ccc(CNC(=O)N(Cc2ccn(C)c2)[C@H]2CCNC[C@H]2F)cc1 [Compound I-124] | – | – | 0.69 nM | 2.22 nM | – |
| CN1CCC(N(Cc2ccc(F)cn2)C(=O)NCc2ccc(C3CC3)cc2)CC1 [Compound I-125] | < 10 nM | 10 to 100 nM | – | – | – |
| CCCOc1ccc(CNC(=O)N(Cc2cc(C)n(C)n2)[C@H]2CCN(C)CC23CC3)cc1 [Compound I-126] | – | – | 1.92 nM | 1.09 nM | – |
| CCCOc1ccc(CNC(=O)N(Cc2cc(C)n(C)n2)[C@@H]2CCN(C)CC23CC3)cc1 [Compound I-127] | > 100 nM | > 100 nM | – | – | – |
| CC(C)CNc1ccc(CNC(=O)N(Cc2ccc(F)cn2)[C@H]2CCNC[C@H]2F)cc1 [Compound I-129] | – | – | 0.85 nM | 1.51 nM | 31.4% |
| COCc1ccc(CNC(=O)N(Cc2ccc(C)cn2)C2CCN(C)CC2)cc1 [Compound I-130] | – | – | 15.3 nM | 348 nM | – |
| Cc1cc(CN(C(=O)NCc2ccc(OCC(C)C)cc2)[C@H]2CCNC[C@H]2F)nn1C [Compound I-133] | – | – | – | – | 6.6% |
| CCCOc1ccc(CNC(=O)N(Cc2ccn(C)c2)[C@H]2CCNC[C@H]2F)cc1 [Compound I-134] | – | – | 0.475 nM | 3.2 nM | 31.2% |
| CCCOc1ccc(CNC(=O)N(Cc2cc(C)n(C)n2)[C@H]2CCN(C)C[C@H]2F)cc1 [Compound I-139] | – | – | 2.93 nM | 11.1 nM | 14.2% |
| CCCOc1ccc(CNC(=O)N(Cc2ccn(C)c2)[C@H]2CCN(C)C[C@H]2F)cc1 [Compound I-141] | – | – | – | – | 49.3% |
| CC(C)COc1ccc(CNC(=O)N(Cc2cc(CF)n(C)n2)[C@H]2CCN(C)C[C@H]2F)cc1 [Compound I-146] | – | – | 1.94 nM | 4.96 nM | – |
| CC(C)CN(C)c1ccc(CNC(=O)N(Cc2ccc(F)cn2)[C@H]2CCN(C)C[C@H]2F)cc1 [Compound I-147] | – | – | 0.758 nM | 2.12 nM | – |
